In general, IC50 refers to the concentration that inhibits the measured activity by half.

One series deals with NESTIN expression in GB5. The series can be described thus: NESTIN expression by immunofluorescence in GB5. The class given is cell-based, human. To be noted: GB5, seven days, growing concentrations. The method, then:
(§1) FIG. 2: Compounds 9a-b and 18a-b effect on stemness marker expression, clonal expansion and mitosis in GB5 cells. (A) NESTIN expression was assessed by immunofluorescence in GB5 treated with increasing amount of Compounds 9a-b and 18a. The number of NESTIN positive cells was counted for each treatment and express as percentage of the control (100%). The results are the meaning of at least two separate experiments. […] (C) Clonal expansion analysis was performed with GB5 cells as described in the material and method section. Two and three weeks later, the number of spheroids is counted and reported as percentage of the initial number of cells in the well. The results are the meaning of a minimum of two separate experiments. (D) The number of mitosis in the culture was determined by the detection of the number of cells positive for histone H3 phosphorylated on ser-10 (H3-ser10). H3-ser10 expression was assessed by immunofluorescence in GB5 treated with increasing amount of Compounds 9a-b and 18a. The number of positive cells was counted for each treatment and express as percentage of the control (100%). The results are the meaning of at least two separate experiments.
(§2) III—Immunofluorescence assay: TG6 and GB5 were seeded at 2000 cells/well in 24 wells plate in NS34+ alone or containing 5, 7.5, 10, 12.5, 15, 20 and 25 uM of Compounds 9a-b and 18a-b. Cultures were incubated 4 days and the cells were fixed with 4% paraformaldehyde for 10 min at room temperature then washed with PBS. Cells were then incubated with ammonium chloride at 20 mM 5 min at room temperature and washed 5 times with PBS. Blocking and hybridization were realized in PBS containing 10% FCS and 0.1% Triton X100. Anti-Nestin and anti-H3Phospho serine 10 antibodies were incubated 2 hours at room temperature then washed with PBS. Fluorescence coupled secondary antibodies and Hoechst 33342 nuclei counterstaining reagent were hybridized one hour at room temperature. Cells were mounted with anti-fading agent then imaged, counted and quantified using fluorescent microscopy (TiE Nikon) and NiS software (Nikon).
Patient derived GSC (GB5) have been treated during seven days, with growing concentrations of compounds that have been capable of inducing changes of GSC morphology. To assess the consequence on stemness maintenance, we observed, by immunofluorescence, the expression of stemness and progenitor cells such as the NESTIN protein. […] The strongest effect has been obtained with Compounds 9a treatment (IC50=10 uM).

Series [1] deals with GB5 cells. The series can be described thus: Mitosis: cells positive for histone H3 phosphorylated on ser-10, GB5. The class given is cell-based, human. To be noted: GB5, H3-ser10 positive cells. As for the experimental part: as §1, §2
(§3) It was further investigated the effects of selected compounds on GSC clonal expansion as well as their capacity of mitosis (FIGS. 2B and C). Compounds 9a-b and 18a treatment altered GSC clonal expansion and mitosis. The most efficient inhibition of clonal expansion was provided by Compound 9a treatment (IC50<10 uM) while both Compounds 9a-b were the most efficient for mitosis inhibition (IC50<10 uM) (FIGS. 2C and D).

For series [2], the system named is Patient derived GSC (GB5). Description: Effect of compound treatment on GSC phenotype (adhesion, morphology), GB5. In kind it is cell-based, human. To be noted: three days. The source says: FIG. 1: phase contrast images of GB5 morphology untreated (CTL DMSO) or treated with the indicated compound (“Cpd” denotes compound) at the indicated concentration. Control cells grow as non-adherent spheroids composed of numerous GSC. When differentiated the cells become adherent and spread on the culture dish.
B—Cell culture: Patient-derived cells GB5 were isolated from surgical resection of human primary GBM provided by the department of neurosurgery of the University Hospital of Nice. TG6 (patient-derived cell from primary GBM) and HNNSC25 (Human Normal Neural Stem Cells) have been provided by Dr Hervé Chneiweiss, University of Pierre and Marie Curie, Paris. The resulting primary cultures (GB5, TG6, HNNSC25) were grown in NS34+ medium containing EGF and bFGF (DMEM-F12 1/1 ratio, 10 mM glutamine, 10 mM Hepes, 0.025% Sodium bicarbonate, N2, G5, and B27).
Patient derived GSC (GB5) were treated with growing concentration of Compounds 9a-b and 18a-b (10 to 100 uM) during three days). […] Similar results have been obtained with TG6.

In series [3] the test system is GB5 cells. Description: Clonal expansion (clonal proliferation) of GB5. The class given is cell-based, human. To be noted: GB5, spheroids counted after two and three weeks. As for the experimental part:
as §1
Clonal proliferation: TG6 and GB5 were seeded at 10 cells/well in 96 wells plate in NS34+ medium alone or containing growing concentration of Compounds 9a-b and 18a-b. Immediately after seeding, the real number of cells in the well was determined by direct count. Two and three weeks later, the resulting number of spheroids in each well was evaluated by a direct count. The % of clonal efficiency was calculated in dividing […].
as §3

A further series has as its system GB5. Description: XTT toxicity assay on GSC (GB5). The class given is cell-based. As for the experimental part: FIG. 4: Determination of compound toxicity on GSC and normal human cells. (A) GB5 were incubated with growing concentration of Compounds 9a-b and 18a. (B) human normal neural stem cell (NNSC), human normal kidney cells (NHEK), human normal hepatocytes (HEPRG) and (C) human endothelial cells (HUVEC) were treated with growing concentration of Compound 9a. 7 days later, the cells were subjected to an XTT assays as described in the method section. The results are the meaning of at least two separate experiments. Cell death was confirmed by trypan blue staining (not shown).
II—XTT assay: TG6 and GB5 were seeded at 2000 cells/well in 96 wells plate in NS34+ alone or containing 10, 20, 25, 50 and 100 uM of Compounds 9a-b and 18a-b. Cultures were incubated 4 days and the cell proliferation was evaluated as indicated by the manufacturer.
V—Toxicity tests: NNSC, GB5, TG6, HEK293, and HepaRG, HUVEC were seeded at 2000 cells/well in 96 wells plate in their respective culture mediums alone or containing growing concentration from 10 to 500 uM of Compounds 9a-b. Cultures were incubated 4 days and the cellular toxicity has been evaluated by XTT assays. Cell viability has been also assessed by counting living and dead cells with trypan blue staining.
XTT assays allows, through cell metabolism measurement, to determine a cytotoxic/cytostatic effects. Compounds 9a-b and 18a were tested for their eventual toxicity by XTT assays as described in the material and method section. At the working concentrations 10 to 25 uM, the compounds are not toxic for GSC (FIG. 4A). […] Compound 9a toxicity was further tested on normal neural stem cells (NNSC), human kidney (NHEK), human hepatocytes (HEPRG) and human endothelial cells (HUVEC). The compound is not toxic on NNSC, NHEK, HEPRG and HUVEC cells when used between 10 to 50 uM. At 100 uM and above, Compound 9a was toxic (FIG. 4).
For orientation: Tetrazolium assays rely on reduction of a dye to a coloured formazan, in cell work by metabolically active cells.

Series [4] relates to GB5 cells. Description: TMZ assay: GSC sensitivity to Temozolomide (XTT). In kind it is cell-based, human. To be noted: three days; for increase of TMZ sensitivity: GB5, TMZ 400 uM plus compound at 10 uM; for increase of TMZ sensitivity, maximal effect: GB5, TMZ 400 uM plus compound at 50 uM. The method, then: FIG. 5: Sensitivity to TMZ was assessed by comparing the percentage of dead cells between TMZ treated GB5 and TMZ treated GB5 in combination with Compound 9a. GB5 cells have been treated with 400 uM TMZ alone or in combination with growing concentrations of Compounds 9a-b and 18b. The results are the meaning of at least two separate experiments.
IV—TMZ assay: TG6 and GB5 were seeded at 2000 cells/well in 96 wells plate in NS34+ or treated with medium containing 400 uM of TMZ alone or mixed with 10, 25 and 50 uM of Compounds 9a-b and 18a-b. Cultures were incubated 4 days and the cell viability has been evaluated by XTT assays and a count of living and dead cells with trypan blue staining.
Temozolomide is the chemotherapy of reference for GBM treatment. In order to assess whether the compounds might sensitize GSC to TMZ, TMZ (400 uM) pretreated GB5 cells were incubated with 10, 25 and 50 uM of Compounds 9a-b and 18b. Three days later the experiment is stop and the cells were subjected to an XTT assays. […] Cell toxicity was confirmed by trypan blue staining.

As for `NCCCCNCCCNC(=O)c1csc(-c2csc(CCNC(=O)CCC(=O)NCC3OC(OC4C(O)C(N)CC(N)C4OC4OC(CN)C(O)C(O)C4N)C(O)C3OC3OC(CN)C(O)C(O)C3N)n2)n1` (stereo not drawn) [Compound 18a, 4-((2-(4-((3-((4-aminobutyl)amino)propyl)carbamoyl)-[2,4′-bithiazol]-2′-yl)ethyl)amino)-4-oxobutanoic-amido-neomycin], the NESTIN expression result with NESTIN expression in GB5 was “drop in NESTIN expression”. Moreover, in the series with GB5 cells [1], the GSC mitosis entry is listed as “altered”. Moreover, in series [2] (GB5, 10 uM), the “adhesion and changes in GSC morphology” value was “induced adhesion and changes in GSC morphology”. Further, the GSC clonal expansion entry with GB5 cells [3] is recorded as “altered”. The “toxicity for GSC (XTT)” value with GB5 (GB5, 50 uM and higher) was “relative toxicity”; in the series with GB5 (GB5, 10 to 25 uM), “not toxic”.

Consider `NCCCNC(=O)c1csc(-c2csc(CCNC(=O)CCC(=O)NCC3OC(OC4C(O)C(N)CC(N)C4OC4OC(CN)C(O)C(O)C4N)C(O)C3OC3OC(CN)C(O)C(O)C3N)n2)n1` (stereo not drawn) [Compound 18b, 4-((2-(4-((3-aminopropyl)carbamoyl)-[2,4′-bithiazol]-2′-yl)ethyl)amino)-4-oxobutanoic-amido-neomycin], for which, in the series on GB5 cells [4], the “increase of TMZ sensitivity” value is reported as 1.7 fold and the “increase of TMZ sensitivity, maximal effect” value is recorded as 3 fold. Also, the “adhesion and changes in GSC morphology” value in series [2] (GB5, 25 uM) is “induced adhesion and changes in GSC morphology”.

For `NCC1OC(OC2C(Cn3cc(CCC(=O)NCCc4nc(-c5nc(C(=O)NCCCCN=C(N)N)cs5)cs4)nn3)OC(OC3C(O)C(N)CC(N)C3OC3OC(CN)C(O)C(O)C3N)C2O)C(N)C(O)C1O` (stereo not drawn) [Compound 9b, N-(4-((Diaminomethylene)amino)butyl)-2′-(2-(3-(1-methyl-1H-1,2,3-triazol-4-yl)propanamido)ethyl)-[2,4′-bithiazole]-4-carboxamide-neomycin], in the series on NESTIN expression in GB5, the NESTIN expression entry was “drop in NESTIN expression”. For the same compound, in the series on GB5 cells [4], the “increase of TMZ sensitivity” value was 1.8 fold and the “increase of TMZ sensitivity, maximal effect” value was found to be 2.8 fold. For the same compound, the GSC mitosis entry with GB5 cells [1] is listed as “altered”. In the series with GB5 cells [1] (Homo sapiens, read-out: mitosis inhibition IC50), the IC50 is under 10 µM. Besides, in series [2] (GB5, 10 uM), the “adhesion and changes in GSC morphology” value is “induced adhesion and changes in GSC morphology”. The GSC clonal expansion result in the series on GB5 cells [3] is “altered”. For the same compound, the “toxicity for GSC (XTT)” value in the series on GB5 (GB5, 50 uM and higher) is given as “relative toxicity”. For the same compound, the “toxicity for GSC (XTT)” value with GB5 (GB5, 10 to 25 uM) was “not toxic”.

For the origin of these results see patent US12508275B2, “Neomycin based compounds, and pharmaceutical use thereof” (UNIVERSITÉ COTE D'AZUR, priority 2019, dated 2025).
